# pIC50: −log10 of the molar value. Where two headings read alike, the source gives them in different places.
# Key:
# [1] = system: pERK in HCT-116 cells (KRAS G13D); experiment: Phospho-ERK inhibition (AlphaLISA SureFire Ultra p-ERK 1/2), HCT116; format: cell-based, human; settings: for pIC50 / HCT116 pERK % Ymin (lowest value of the IC50 curve): HCT116 cells; for HCT116 pERK % Ymin (lowest value of the IC50 curve): Ymin above −20% = minimal or no paradoxical activation
# Outline: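 p-ERK1/2 (Thr202/Tyr204) in lysates measured by AlphaLISA after 1 h compound exposure of overnight-plated cells (RPMI-1640, 5% FBS, 0.5% DMSO, ten concentrations, usually from 10 μM). Background from a trametinib control subtracted, inhibition normalised to vehicle, and IC50 fitted with a variable-slope four-parameter model.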
# BRAF = BRAF (Homo sapiens (Human), UniProt P15056); experiment: BRAF kinase activity assay (ADP-Glo); format: biochemical; settings: for pIC50: first kinase column (c6), * symbols, read-out: Kinase IC50
# Description: (§1) Compound preparation: solid samples of each substances in 1 dram vials were suspended in DMSO (Fisher Scientific) at a stock concentration of 20 mM. Stocks were kept at −20° C. and protected from light.
# (§2) In vitro enzymatic reactions were used for evaluating compounds intrinsic activity against BRAF, CRAF and ARAF. […] Separate reactions were performed with the MEK1 substrate and ATP as a blank control.
# (§3) For compound treatment, 5 μL/well of test substance solution are placed in a 384-well proxyplate (Perkin Elmer) and mixed with 2× concentrated kinase reactions. The dilution series is selected so that nine concentrations cover a range from 100 nM to 0.01 nM. […] The final concentration of DMSO in the assay is set at 0.05%.
# (§4) BRAF and CRAF kinase reactions were carried out for a total of 2 hours at 30° C. and then stopped by ½ dilution in ADP-Glo Reagent (cat #V9102; Promega; part V912C). Reactions were then incubated for 1h at room temperature before addition of one volume of Kinase Detection Reagent (cat #V9102; Promega; part V917A). Plates were then equilibrated at room temperature for 30 minutes before detection of luminescence on a Synergy Neo2 plate reader (Biotek). The effect of each compound dilution on BRAF and CRAF kinase activity was expressed as % inhibition and calculated as follows.
# (§5) IC50 values were obtained by plotting the kinase inhibition values and fitting the dose-activity curves using a log(agonist) versus response-variable slope (four parameters) function using either GraphPadPrism (V7.0) or Dotmatics Screening Ultra platform.
# CRAF = CRAF (Homo sapiens, UniProt P04049); experiment: CRAF kinase activity assay (ADP-Glo); format: biochemical
# Description: as §1, §2, §3, §4, §5
# [2] = Homo sapiens, HCT-116, class symbol
# [3] = § symbols, read-out: Kinase IC50
# [4] = BRAF, read-out: Kinase IC50 (nM), BRAF biochemical kinase assay
# [5] = CRAF, read-out: Kinase IC50 (nM), CRAF biochemical kinase assay
# [6] = lowest value of the curve, HCT116, Table 5
# [7] = Table 5, read-out: Kinase IC50 (nM) BRAF
# [8] = Table 5, read-out: Kinase IC50 (nM) CRAF
# BRAF, sequence (P15056 whole entry): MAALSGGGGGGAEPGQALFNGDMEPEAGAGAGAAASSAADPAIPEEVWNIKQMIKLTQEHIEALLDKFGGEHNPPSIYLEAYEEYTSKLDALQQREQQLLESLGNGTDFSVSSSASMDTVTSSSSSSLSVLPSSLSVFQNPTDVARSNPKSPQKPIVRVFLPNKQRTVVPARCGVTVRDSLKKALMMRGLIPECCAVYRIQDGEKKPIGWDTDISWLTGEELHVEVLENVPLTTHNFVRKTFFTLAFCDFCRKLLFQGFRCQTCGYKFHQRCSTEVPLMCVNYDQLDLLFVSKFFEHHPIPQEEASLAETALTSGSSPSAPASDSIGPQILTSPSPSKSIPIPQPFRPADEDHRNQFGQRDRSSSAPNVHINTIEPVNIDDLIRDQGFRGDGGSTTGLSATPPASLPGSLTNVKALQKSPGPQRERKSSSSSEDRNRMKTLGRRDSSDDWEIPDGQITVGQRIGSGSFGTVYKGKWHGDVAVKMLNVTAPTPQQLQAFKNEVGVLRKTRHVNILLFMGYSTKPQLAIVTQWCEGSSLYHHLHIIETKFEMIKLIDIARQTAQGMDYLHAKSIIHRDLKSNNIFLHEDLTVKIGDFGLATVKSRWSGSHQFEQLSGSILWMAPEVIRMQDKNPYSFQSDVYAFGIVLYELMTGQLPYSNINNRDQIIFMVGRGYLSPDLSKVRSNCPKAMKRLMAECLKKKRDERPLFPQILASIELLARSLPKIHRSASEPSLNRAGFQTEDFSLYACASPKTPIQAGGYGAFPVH
# CRAF, sequence (P04049 whole entry, looked up): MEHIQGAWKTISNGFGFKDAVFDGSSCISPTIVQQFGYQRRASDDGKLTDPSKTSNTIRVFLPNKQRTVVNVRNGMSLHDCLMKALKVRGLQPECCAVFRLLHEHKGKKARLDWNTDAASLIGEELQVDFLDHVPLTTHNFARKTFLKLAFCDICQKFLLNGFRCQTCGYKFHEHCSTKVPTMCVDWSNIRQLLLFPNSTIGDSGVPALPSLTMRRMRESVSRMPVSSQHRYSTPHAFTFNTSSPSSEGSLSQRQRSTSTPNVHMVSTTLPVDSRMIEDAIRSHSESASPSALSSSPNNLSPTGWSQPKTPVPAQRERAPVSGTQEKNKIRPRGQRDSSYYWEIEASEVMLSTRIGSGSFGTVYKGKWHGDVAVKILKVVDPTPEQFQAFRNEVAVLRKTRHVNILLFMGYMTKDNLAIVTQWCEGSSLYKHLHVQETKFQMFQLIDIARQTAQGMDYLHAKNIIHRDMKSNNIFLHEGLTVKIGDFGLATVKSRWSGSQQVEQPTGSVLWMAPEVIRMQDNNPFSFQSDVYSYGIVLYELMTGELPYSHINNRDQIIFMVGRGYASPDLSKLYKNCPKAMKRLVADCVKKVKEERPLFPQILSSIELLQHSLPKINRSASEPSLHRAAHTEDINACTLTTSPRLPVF
Compound,pIC50 [1],HCT116 pERK % Ymin (lowest value of the IC50 curve) [1] [%],IC50 (BRAF; [4]) [nM],IC50 (CRAF; [5]) [nM],also measured
"Cc1c(F)cccc1S(=O)(=O)Nc1ccc(F)c(Nc2ncnc3ccc(-n4cnc5c(CO)cccc54)nc23)c1F [Example 345, N-[2,4-difluoro-3-[[6-[4-(hydroxymethyl)benzimidazol-1-yl]pyrido[3,2-d]pyrimidin-4-yl]amino]phenyl]-3-fluoro-2-methyl-benzenesulfonamide]",,,,,"pIC50 [1, 2]: > 6.30; pIC50 (BRAF): 8.00 to 9.00; pIC50 (CRAF; [3]): > 8.00"
CC(=O)N1CCCc2nn(-c3ccc4ncnc(Nc5c(F)ccc(NS(=O)(=O)c6cccc(Cl)c6Cl)c5F)c4n3)cc21 [Example 486],,,,,"pIC50 [1, 2]: 6.00 to 6.30; pIC50 (BRAF): 8.00 to 9.00; pIC50 (CRAF; [3]): > 8.00"
O=S(=O)(Nc1ccc(F)c(Nc2ncnc3ccc(-c4cnc5n4CCCC5)nc23)c1F)c1cccc(Cl)c1Cl [Example 561],> 6.30,−13,1 to 10,< 10,
Cc1ncc(-c2ccc3ncnc(Nc4c(F)ccc(NS(=O)(=O)c5cccc(Cl)c5Cl)c4F)c3n2)[nH]1 [Example 595],5.00 to 6.00,−16,1 to 10,10 to 50,
O=S(=O)(Nc1ccc(F)c(Nc2ncnc3ccc(-n4cnc5c(N6C7CCC6CN(CCO)C7)cccc54)nc23)c1F)c1cccc(Cl)c1Cl [Example 629],,−2,1 to 10,10 to 50,
O=S(=O)(Nc1cccc(Nc2ncnc3ccc(-n4cnc5ccccc54)nc23)c1F)c1cccc(Cl)c1Cl [Example 646],,,,,"pIC50 ([1]; Table 5): > 6.30; HCT116 pERK Ymin % [1, 6]: −3%; IC50 (BRAF; [7]): 1 to 10 nM; IC50 (CRAF; [8]): 10 to 50 nM"
O=S(=O)(Nc1cc(F)c(F)c(Nc2ncnc3ccc(-n4cnc5ccccc54)nc23)c1F)c1cccc(Cl)c1Cl [Example 648],,,,,"pIC50 ([1]; Table 5): > 6.30; HCT116 pERK Ymin % [1, 6]: −1%; IC50 (BRAF; [7]): 1 to 10 nM; IC50 (CRAF; [8]): < 10 nM"
O=S(=O)(Nc1cc(F)c(F)c(Nc2ncnc3ccc(-n4nnc5ccccc54)nc23)c1F)c1cccc(Cl)c1Cl [Example 649],,,,,"pIC50 ([1]; Table 5): > 6.30; HCT116 pERK Ymin % [1, 6]: 3%; IC50 (BRAF; [7]): 1 to 10 nM; IC50 (CRAF; [8]): < 10 nM"
O=S(=O)(Nc1ccc(F)c(Nc2ncnc3ccc(-n4cnc5ccccc54)nc23)c1F)c1ccc(C(F)(F)F)cc1Cl [Example 653],,,,,"pIC50 ([1]; 1 h treatment): 5.00 to 6.00; HCT116 pERK Ymin % ([1]; lowest % inhibition value of the IC50 curve, HCT116): −13%; IC50 (BRAF; read-out: Kinase IC50 (nM) BRAF): > 10 nM; IC50 (CRAF; read-out: Kinase IC50 (nM) CRAF): > 50 nM"
"O=S(=O)(Nc1ccc(F)c(Nc2ncnc3ccc(-n4cnc5c(C6CCNCC6)cccc54)nc23)c1F)c1cccc(Cl)c1Cl [Example 662, 2,3-dichloro-N-[2,4-difluoro-3-[[6-[4-(4-piperidyl)benzimidazol-1-yl]pyrido[3,2-d]pyrimidin-4-yl]amino]phenyl]benzenesulfonamide]",,−6,< 1,,"pIC50 ([1]; Homo sapiens, HCT-116): 5.00 to 6.00; pIC50 (CRAF): > 8.00"
Cc1c(F)cccc1S(=O)(=O)Nc1ccc(F)c(Nc2ncnc3ccc(-n4ncc5c4CN(C)CC5)nc23)c1F [Example 664],5.00 to 6.00,−15,1 to 10,> 50,
O=S(=O)(Nc1ccc(F)c(Nc2ncnc3ccc(-n4cnc5c(N6CCC(O)(CCO)CC6)cccc54)nc23)c1F)c1cccc(Cl)c1Cl [Example 671],> 6.30,−5,< 1,< 10,

# Continued, in another order:
pIC50 [1],HCT116 pERK % Ymin (lowest value of the IC50 curve) [1] [%],IC50 (BRAF; [4]) [nM],IC50 (CRAF; [5]) [nM],Compound,also measured
5.00 to 6.00,−1,> 10,> 50,O=S(=O)(Nc1ccc(F)c(Nc2ncnc3ccc(-n4cnc5nccnc54)nc23)c1F)c1cccc(Cl)c1Cl [Example 573],
> 6.30,−2,1 to 10,< 10,N#CC1(c2cccc3c2nnn3-c2ccc3ncnc(Nc4c(F)ccc(NS(=O)(=O)c5cccc(Cl)c5Cl)c4F)c3n2)CC1 [Example 610],
> 6.30,−10,1 to 10,< 10,O=S(=O)(Nc1ccc(F)c(Nc2ncnc3ccc(-n4cnc5c(C6(CO)CC6)cccc54)nc23)c1F)c1cccc(Cl)c1Cl [Example 612],
6.00 to 6.30,−3,1 to 10,10 to 50,CN1CCN(c2ncc(-c3ccc4ncnc(Nc5c(F)ccc(NS(=O)(=O)c6cccc(Cl)c6Cl)c5F)c4n3)s2)CC1 [Example 613],
> 6.30,0,> 10,10 to 50,O=S(=O)(Nc1ccc(F)c(Nc2ncnc3ccc(-c4cnc(N5CCOCC5)s4)nc23)c1F)c1cccc(Cl)c1Cl [Example 631],
> 6.30,−2,< 1,< 10,O=S(=O)(Nc1ccc(F)c(Nc2ncnc3ccc(-n4cnc5c(N6CCNCC6)cccc54)nc23)c1F)c1cccc(Cl)c1Cl [Example 634],
> 6.30,−9,< 1,< 10,O=S(=O)(Nc1ccc(F)c(Nc2ncnc3ccc(-n4cnc5c(C6CCN(CCO)CC6)cccc54)nc23)c1F)c1cccc(Cl)c1Cl [Example 681],
> 6.30,−14,< 1,< 10,Cc1cn(-c2ccc3ncnc(Nc4c(F)ccc(NS(=O)(=O)c5cccc(Cl)c5Cl)c4F)c3n2)nn1 [Example 684],
> 6.30,6,1 to 10,10 to 50,CCC1(O)CCN(c2nccc3c2ncn3-c2ccc3ncnc(Nc4c(F)ccc(NS(=O)(=O)c5cccc(Cl)c5Cl)c4F)c3n2)CC1 [Example 691],

# Source: patent US12139488B2, “Pyrido[3,2-d]pyrimidine compounds uses thereof for treating a proliferative disease” (Universite de Montreal, priority 2021, dated 2024)
